Reference: patent US6124342A, “Pharmaceutical compositions containing pyrylium compounds, pyrylium salts and process for manufacturing a medicament containing the aforesaid compounds” (priority 1993, dated 2000)
Values joined by “and” are separate entries in the source; they are usually repeats but may differ in a detail not shown here. Equal entries are not always repeated. Where two headings read alike, the source gives them in different places.

Experiments:
[1] = Light absorption characteristics without DNA (Table 2); format: physicochemical
From the text: (§1) Typical examples of compounds represented by the formula [I] which can be used as the active ingredient in a medicament for the photochemical treatment of cancer according to the present invention are shown in Table 1 below. Almost all the compound shown in Table 2 have their own absorption peaks in the region 600 nm or above, and have molar absorption coefficients as large as 5-8.5×10^4 l/mol.cm which enables more efficient use to be made of the light in photochemical treatment. Furthermore, compound 1 in Table 2 has an absorption peak in the region below 600 nm, but it has sufficiently strong absorption that it still provides better treatment efficiency at wavelength greater than 600 nm.

[2] = system: DNA; assay: Light absorption characteristics under existence of DNA (Table 2); format: physicochemical; conditions: with DNA
From the text: as §1

[3] = system: cancer cells; assay: Uptake by cancer cells; format: cell-based, mice
Experimental: Four such cultures using the same medium were prepared.

[4] = system: nude mice; assay: Acute toxicity test, intravenous injection; format: in vivo; conditions: balanced saline solution; i.v. leg vein; 1 mg/kg; 2 nude mice
Experimental: The compound 1 (Y=I) was dissolved into a balanced saline solution and was injected into each of 2 nude mice of weight 200-400 g through a vein in the leg of the mouse. The amount of solution injected was 1 mg to 1 kg of the weight of each mouse.
The toxicity test of Example 6 was repeated except that the compound 2 was used in place of the compound 1.
The test of Example 6 was repeated except that the compound 1 (Y=I) was dissolved in dimethyl sulfoxide. The amount of solution injected was 1 mg per 1 kg of the mouse's weight. Subsequent injections on further groups of mice were carried out at 5 mg per 1 kg of the mouse's weight and 25 mg per 1 kg of the mouse's weight.
The same test as in Example 8 was carried out except that the active ingredient was compound 2 (Y=I) instead of compound 1.

[5] = system: KATO III; assay: Photochemical treatment of KATO III tumours in nude mice; format: in vivo, human; conditions: Tables 6 and 7
Experimental: (§2) Ten nude mice having weight 200-400 g were selected, and they were separated into five groups referred to as A, B, C, D and E, each containing two nude mice. Each of the mice was inocculated on its back with KATO III, which is a culture of stomach cancer cells from a human patient. The cancer cells were inocculated into the central part of the back of each mouse, after which the mice were kept for ten days. […] The mice in groups A, B and E were injected with the compound 1 (Y=I) in balanced saline solution through a vein in the leg. The amount of compound 1 which was administered to each mouse was 1 mg per 1 kg of the mouse's weight. Thereafter, the cancerous growth in each mouse in the group A and C was irradiated with white light in which the radiation of wavelength 400 nm or less and radiation of wavelength 1000 nm or above was filtered out. In group E, a part of every mouse's back was irradiated with the white light. In each case the amount of irradiation was 50J. Thereafter, the cancerous region of each mouse in the group a to D was observed and the skin of each mouse in the group E was observed.
The same test as in Example 10 was carried out except that the compound 2 was used in place of the compound 1. the results are shown in Table 7.

[6] = system: skin of each mouse; assay: Irradiation of the back skin of medicated mice without tumour; format: in vivo, nude mice; conditions: for change on irradiation of mice without tumour: group E or E'; for affinity for cancer cells versus normal cells: inferred from group E or E'
Experimental: as §2, with “The amount of compound 1 which was administered to each mouse was 1 mg per 1 kg of the mouse's weight. Thereafter, the cancerous growth in each mouse in the group A and C was irradiated with white light in which the radiation of wavelength 400 nm or less and radiation of wavelength 1000 nm or above was filtered out.” left out

[7] = system: KATO III; assay: Deepness of necrotic tumour after irradiation; format: in vivo, human; conditions: 1 mg/kg; 580 nm (half-width=20 nm); 10J; one day after irradiation
Experimental: Four nude mice of weight 200-400 g were selected and were separated into groups X and Y, each containing two mice. Next, KATO III was inocculated into every mouse in the same way as in Example 10, after which the mice were kept for three weeks to fix the cancer cells. After three weeks the cancer in each mouse had grown and the size of the cancer was about 13 mm wide, 13 mm long and about 8 mm high. Next the mice in group X were injected via the leg with a balanced saline solution of the compound 1, and the mice of Group Y were injected with a balanced saline solution of the compound 16 via the leg. The dose of the compound 1 or 16 was adjusted to be 1 mg of the compound 1 or the compound 16 per 1 kg of the mouse's weight. Subsequently, the mice in group X were irradiated with radiation of wavelength 580 nm (half-width=20 nm) which was separated by means of a filter, and the mice in group Y were irradiated with radiation having a wavelength 720 nm (half-width=20 nm) which was separated with a filter. The amount of energy irradiated was 10J. One day after the irradiation the depth of the tumour which had become necrotic was measured.

[8] = system: L-929 cells; assay: Photochemical killing of cultured cancer cells (fluorescence microscope irradiation); conditions: for cytotoxicity at 0.25 µg/mL: read-out: percentage of cells which had died, 0.25 μg/ml; for cytotoxicity at 0.5 µg/mL: read-out: percentage of cells which had died, 0.5 μg/ml; for cell killing without irradiation: compound added, not irradiated; for cytotoxicity at 0.05 µg/mL: read-out: percentage of cells which died, 0.05 μg/ml; for cytotoxicity at 0.075 µg/mL: read-out: percentage of cells which died, 0.075 μg/ml
Experimental: L-929 cells which are typical cultured cancer cells from mice were planted onto a culture medium containing E-MEM +10% FCS. The density of the cells in the medium was 10^6 cells/dish (20 ml). Thereafter, the cells were maintained at 37° C. and cultured for 36 hours. Four such cultures using the same medium were prepared. […] Then radiation of wavelength from 560-610 nm to which the compound 1 is responsive was supplied using a fluorescence microscope for the interval of time indicated in Table 3. Thereafter, each medium was cultured for 12 hours, after which the cells were observed using a microscope.
The light used to irradiate the cells at a wavelength of 600-650 nm.
The cells were irradiated with light of wavelength 700-750 nm.

[9] = Mus musculus, L929, 12 h, 3 min, 560-610 nm, Y=I
[10] = Mus musculus, L929, 12 h, 5 min, 560-610 nm, Y=I
[11] = Mus musculus, L929, 1 min, 1 min, 600-650 nm, Y=I
[12] = Mus musculus, L929, 0.05 h, 3 min, 600-650 nm, Y=I
[13] = Mus musculus, L929, 5 min, 5 min, 600-650 nm, Y=I

Row | Compound | Molar absorption coefficient ε [1] [L/mol/cm] | Absorption (max) Peak Under no existence of DNA [1] [nm] | Absorption (max) Peak Under existence of DNA [2] [nm] | adverse effects (acute toxicity) [4] | effectiveness in photochemical treatment of human cancer cells growing in live mice [5] | change on irradiation of mice without tumour [6] | affinity for cancer cells versus normal cells [6] | cell killing without irradiation [8] | further results
1 | Cc1cc(-c2ccc(N(C)C)cc2)cc(-c2ccc(N(C)C)cc2)[o+]1 [Compound 1, 2-methyl-4,6-bis-(4-N,N-dimethylaminophenyl) pyrylium iodide] | 84600 | 540 | 580 | no adverse effects | effective in the photochemical treatment of human cancer cells growing in live mice | no change was observed | different from the affinity | not killed and continued to grow in culture | absorption peak region ([1]; Table 2): below 600 nm; uptake by the cancer cells [3]: rapid; Change of skin ([6]; Table 6, group E: 1 mg/kg i.v., irradiated 50J): No Change; Deepness of died tumour [7]: 4.5 mm and 4.8 mm; effectiveness to kill cancer cells ([8]; 0.1-0.5 μg/ml, irradiation 1-5 minutes): effective to kill cancer cells; cytotoxicity at 0.1 µg/mL ([8]; Mus musculus, L929, 12 h, read-out: percentage of cells which had died, 0.1 μg/ml, 5 min, 560-610 nm, Y=I): 100%; cytotoxicity at 0.25 µg/mL [8, 9]: ~100%; cytotoxicity at 0.25 µg/mL [8, 10]: 100%; cytotoxicity at 0.5 µg/mL ([8]; Mus musculus, L929, 12 h, 1 min, 560-610 nm, Y=I): ~90%; cytotoxicity at 0.5 µg/mL [8, 9]: ~100%; cytotoxicity at 0.5 µg/mL [8, 10]: 100%
2 | Cc1cc(-c2ccc(N(C)C)cc2)cc(-c2ccc(N(C)C)cc2)[s+]1 [Compound 2, 2-methyl-4,6-bis-(4-N,N-dimethylaminophenyl)thiopyrylium iodide] | 49500 | 580 | 620 | no ill effects | effective in the photochemical treatment of human cancer cells growing in live mice | no change was observed | different from the affinity | not killed and continued to grow in culture | Change of skin ([6]; Table 7, group E': medicated, irradiated): No Change; cytotoxicity at 0.05 µg/mL [8, 11]: ~10%; cytotoxicity at 0.075 µg/mL [8, 11]: 80%; cytotoxicity at 0.1 µg/mL ([8]; Mus musculus, L929, 1 min, read-out: percentage of cells which died, 0.1 μg/ml, 1 min, 600-650 nm, Y=I): 100%; cytotoxicity at 0.05 µg/mL [8, 12]: 80%; cytotoxicity at 0.075 µg/mL [8, 12]: 100%; cytotoxicity at 0.1 µg/mL ([8]; Mus musculus, L929, 0.05 h, read-out: percentage of cells which died, 0.1 μg/ml, 3 min, 600-650 nm, Y=I): 100%; cytotoxicity at 0.025 µg/mL ([8]; Mus musculus, L929, 5 min, read-out: percentage of cells which died, 0.025 μg/ml, 5 min, 600-650 nm, Y=I): ~50%; cytotoxicity at 0.05 µg/mL [8, 13]: 100%; cytotoxicity at 0.075 µg/mL [8, 13]: 100%; cytotoxicity at 0.1 µg/mL ([8]; Mus musculus, L929, 5 min, read-out: percentage of cells which died, 0.1 μg/ml, 5 min, 600-650 nm, Y=I): 100%; killing effect compared with another compound ([8]; with irradiation): greater killing effect than compound 1
3 | CN(C)c1ccc(C=Cc2cc(-c3ccccc3)cc(-c3ccccc3)[s+]2)cc1 [Compound 8] | – | 650 | 610 | – | – | – | – | – | –
4 | CN(C)c1ccc(C=CC=Cc2cc(-c3ccccc3)[o+]c(-c3ccccc3)c2)cc1 [Compound 9] | – | 660 | 720 | – | – | – | – | – | –
5 | CN(C)c1ccc(C=CC(C=Cc2ccc(N(C)C)cc2)=Cc2cc(-c3ccccc3)[o+]c(-c3ccccc3)c2)cc1 [Compound 11] | – | 625 | 660 | – | – | – | – | – | –
6 | CCN(CC)c1ccc(C=Cc2ccc(C=Cc3cc(-c4ccccc4)cc(-c4ccccc4)[o+]3)cc2)cc1 [Compound 17] | – | 690 | 720 | – | – | – | – | – | –
